Source: US20110053900A1, “PROGESTERONE ANTAGONISTS SUCH AS CDB-4124 IN THE TREATMENT OF BREAST CANCER” (Repros Therapeutics inc, priority 2008, published 2011)

Experiments:
[1] = test system: rabbit progesterone receptor (rbPR) and glucocorticoid receptor (rbGR); assay: Receptor-binding assays, ratio of relative binding affinities rbPR/rbGR; conditions: RBA = EC50 of standard/EC50 of test compound x 100
Description: (§1) Certain antiprogestins were tested in receptor-binding assays for their ability to bind rabbit progesterone receptor (rbPR) and glucocorticoid receptor (rbGR). Briefly, cytosol containing PR or GR were prepared in TEGMD buffer (10 mM Tris, pH 7.2, 1.5 mM EDTA, 0.2 mM sodium molybdate, 10% glycerol, 1 mM DTT) from uterus or thymus, respectively, of estradiol-primed immature rabbits. For PR binding, the cytosol was incubated with 6 nM 1,2-[^3H]progesterone (50.0 Ci/mmole) and competitors were added at concentrations from 2 to 100 nM. For binding to GR, the cytosol was incubated with 6 nM 6,7-[^3H]-dexamethasone (40 Ci/mmol) and test compounds were added at concentrations from 20 to 100 nM. After overnight incubation at 4° C., bound and unbound [^3H] steroids were separated by addition of dextran-coated charcoal and centrifugation at 2100×g for 15 min at 4
C. Supernatants containing the [3H]-steroid receptor complexes were decanted into vials containing 4 ml Optifluor (Packard Instrument Co.), vortexed, equilibrated in a liquid scintillation counter for 30 minutes and then counted for 2 minutes. The ECso (Effective Concentration) for each standard curve and each of the compound curves was determined by entering the counting data into a four parameter sigmoidal computer program (RiaSmart® Immunoassay Data Reduction Program, Packard Instrument Co., Meriden, Conn.). Relative binding affinity (RBA) for each compound was calculated using the following equation: EC50 of standard/EC50 of test compound×100. The standards for the PR and GR assays were unlabeled progesterone and dexamethasone, respectively. The results of these experiments are summarized in Table 1, as a ratio of the relative binding affinities of each compound for the rbPR and rbGR receptors (rbPR/rbGR).

[2] = target: T1, glucocorticoid receptor (rbGR) (Oryctolagus cuniculus, UniProt P59667); assay: Glucocorticoid receptor binding; design: species or system rabbit
T1 construct: cytosol containing PR or GR were prepared in TEGMD buffer; from tissue; host or cells: thymus of estradiol-primed immature rabbits (cytosol)
T1 sequence (P59667 1-772): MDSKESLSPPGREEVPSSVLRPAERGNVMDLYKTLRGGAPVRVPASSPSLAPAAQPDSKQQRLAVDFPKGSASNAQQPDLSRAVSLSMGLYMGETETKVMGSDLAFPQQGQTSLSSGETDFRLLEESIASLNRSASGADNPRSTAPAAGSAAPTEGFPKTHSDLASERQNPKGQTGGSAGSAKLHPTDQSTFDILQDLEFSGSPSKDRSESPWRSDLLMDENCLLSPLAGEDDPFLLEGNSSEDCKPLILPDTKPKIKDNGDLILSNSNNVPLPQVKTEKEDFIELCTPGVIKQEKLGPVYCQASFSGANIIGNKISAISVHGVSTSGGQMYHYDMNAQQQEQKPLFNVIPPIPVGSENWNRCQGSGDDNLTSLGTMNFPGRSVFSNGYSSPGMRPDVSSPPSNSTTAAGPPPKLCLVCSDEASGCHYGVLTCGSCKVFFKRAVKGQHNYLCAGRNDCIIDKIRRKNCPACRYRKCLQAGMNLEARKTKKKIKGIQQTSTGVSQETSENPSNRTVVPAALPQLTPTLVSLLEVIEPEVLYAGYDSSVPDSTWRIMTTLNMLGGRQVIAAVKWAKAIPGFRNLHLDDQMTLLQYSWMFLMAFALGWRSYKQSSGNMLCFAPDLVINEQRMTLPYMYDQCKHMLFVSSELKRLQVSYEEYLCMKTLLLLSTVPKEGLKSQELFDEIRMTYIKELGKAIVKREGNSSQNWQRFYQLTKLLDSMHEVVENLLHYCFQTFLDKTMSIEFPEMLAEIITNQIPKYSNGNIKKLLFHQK
Description: as §1, with “Briefly, cytosol containing PR or GR were prepared in TEGMD buffer (10 mM Tris, pH 7.2, 1.5 mM EDTA, 0.2 mM sodium molybdate, 10% glycerol, 1 mM DTT) from uterus or thymus, respectively, of estradiol-primed immature rabbits.” left out
C. Supernatants containing the [3H]-steroid receptor complexes were decanted into vials containing 4 ml Optifluor (Packard Instrument Co.), vortexed, equilibrated in a liquid scintillation counter for 30 minutes and then counted for 2 minutes. […] The standards for the PR and GR assays were unlabeled progesterone and dexamethasone, respectively.

rabbit uterus = assay: Anti-McGinty and anti-Clauberg assays; format: in vivo; conditions: average of anti-McGinty and anti-Clauberg results relative to CDB-2914 = 1.00
From the text: Also given in the Table are the relative biological activities of the same compounds in the rabbit uterus by the anti-McGinty and anti-Clauberg assays. Compound CDB-2914 (listed at the end of the Table) was used as the control or reference compound (rabbit Biological Activity=1.00) for these experiments because results of experiments using CDB-2914 have been published before (Hild-Petito et al., 1996; Passaro et al., 1997; Reel et al., 1998; Lamer et al., 2000). For the anti-McGinty test, immature female rabbits received a subcutaneous injection of 5 μg estradiol in 10% ethanol/sesame oil daily for 6 consecutive days. On day 7, animals underwent sterile abdominal surgery to ligate a 3-4 cm segment of both uterine horns. The test compound in appropriate solvent was injected intraluminally into the ligated segment of one uterine horn and vehicle alone into the other. A stimulating dose of progesterone (267 μg/day) was administered subcutaneously to each rabbit daily for the next three days to induce endometrial proliferation. All animals were sacrificed at day 10 for removal of the uterus where a segment central to the ligatures was removed and fixed in 10% neutral buffered formalin and submitted for histological processing. Five micron sections stained with hematoxylin and cosin were evaluated microscopically for the degree of endometrial glandular proliferation. The percent inhibition of endometrial proliferation for each rabbit was calculated and the mean of the group of five animals recorded. For the Anti-Clauberg test, immature female rabbits received a subcutaneous injection of 5 μg estradiol in 10% ethanol/sesame oil daily for 6 consecutive days. On day 7, animals received progesterone by subcutaneous injection (160 μg/day) and the experimental compound in appropriate vehicle orally or subcutaneously for five consecutive days. One group of rabbits received progesterone only. Twenty-four hours after the last dose, all animals were sacrificed for removal of the uterus which was cleaned of all fat and connective tissue, weighed to the nearest 0.2 mg and placed in 10% neutral buffered formalin for subsequent histological processing. Five micron sections stained with hematoxylin and eosin were evaluated microscopically for the degree of endometrial glandular proliferation. The percent inhibition of endometrial proliferation at each dose level of the test compound was derived by comparison with progesterone-stimulated animals alone. The data presented in Table 1 (rabbit Biol. Act.) reflects the average of the results obtained for each compound by the anti-McGinty and anti-Clauberg assays relative to CDB-2914.

Compound: CC(=O)O[C@]1(C(C)=O)CC[C@H]2[C@@H]3CCC4=CC(=O)CCC4=C3[C@@H](c3ccc(N(C)C)cc3)C[C@@]21C [CDB-2914, 17α-acetoxy-11β-(4-N,N-dimethylaminophenyl)-19-norpregna-4,9-dien-3,20-dione, reference compound]
- rbPR/rbGR (ratio of the relative binding affinities for rbPR and rbGR) [1]: 1.07
- anti-glucocorticoid receptor activity / glucocorticoid receptor binding (in words) [2]: moderately active in glucocorticoid receptor binding
- rabbit Biol. Act. (rabbit uterus): 1.00
